Results from US20050037923A1, “Herbicidal mixture based on 7-pyrazolybenzoxazoles” (BASF Aktiengesellschaft, priority 2001, published 2005).

Columns and labels:
ECHCG [1] = test: Greenhouse test, pre-emergence herbicidal action; format: in vivo, barnyardgrass
From the text: (§1) For the pre-emergence treatment, the test plants were sown is pots 1-2 days later, i.e. prior to germination, the pots were sprayed with the finely distributed herbicidal compositions, which had been suspended in water.
(§2) The respective components A and B and/or C were formulated as 10% by weight strength emulsion concentrate and introduced to the spray liquor with the amount of solvent system used for applying the active compound. In the examples, the solvent used was water.
(§3) The test period extended over 21 days. During this time, the plants were tended, and their response to the treatments with active compound was evaluated.
(§4) The evaluation for the damage caused by the chemical compositions was carried out using a scale from 0 to 100%, compared to the untreated control plants. Here, 0 means no damage and 100 means complete destruction of the plants.
(§5) In the examples below, the value E which is to be expected if the activity of the individual active compounds is just additive was calculated using the method of S. R. Colby (1967) “Calculating synergistic and antagonistic responses of herbicide combinations”, Weeds 15, p. 22 ff. E=X+Y—(X·Y/100) where • X=effect in percent using active compound A at an application rate a; • Y=effect in percent using active compound B at an application rate b; • E=expected effect (in %) of A+B at application rates a+b.
(§6) The plants used in the greenhouse experiments were of the following species: […]

SETFA = test: Greenhouse test, post-emergence herbicidal action; format: in vivo, giant foxtail; conditions: 21 days
From the text: (§7) For the post-emergence treatment, the test plants were first grown to a height of 3 to 20 cm, depending on the plant habit, and only then treated. Here, the herbicidal compositions were suspended or emulsified in water as distribution medium and sprayed using finely distributing nozzles.
as §2, §3, §4, §5, §6

BRAPL = test: Greenhouse test, post-emergence herbicidal action; format: in vivo, alexandergrass
From the text: as §7, §2, §3, §4, §5, §6

MATIN = test: Greenhouse test, post-emergence herbicidal action; format: in vivo, false chamomille
From the text: as §7, §2, §3, §4, §5, §6

ABUTH [2] = test: Greenhouse test, post-emergence herbicidal action; format: in vivo, velvet leaf; conditions: 21 days
From the text: as §7, §2, §3, §4, §5, §6

POLPE = test: Greenhouse test, post-emergence herbicidal action; format: in vivo, ladysthumb
From the text: as §7, §2, §3, §4, §5, §6

BIDPI [3] = test: Greenhouse test, post-emergence herbicidal action; format: in vivo, hairy beggarticks
From the text: as §7, §2, §3, §4, §5, §6

POAAN = test: Greenhouse test, post-emergence herbicidal action; format: in vivo, annual bluegrass
From the text: as §7, §2, §3, §4, §5, §6

CHEAL = test: Greenhouse test, pre-emergence herbicidal action; format: in vivo, lambsquarters
From the text: as §1, §2, §3, §4, §5, §6

COMBE = test: Greenhouse test, post-emergence herbicidal action; format: in vivo, tropical spiderwort; conditions: 21 days
From the text: as §7, §2, §3, §4, §5, §6

AVEFA = test: Greenhouse test, post-emergence herbicidal action; format: in vivo, wild oat
From the text: as §7, §2, §3, §4, §5, §6

THLAR = test: Greenhouse test, pre-emergence herbicidal action; format: in vivo, fanweed
From the text: as §1, §2, §3, §4, §5, §6

SORHA = test: Greenhouse test, pre-emergence herbicidal action; format: in vivo, johnsongrass
From the text: as §1, §2, §3, §4, §5, §6

ECHCG [4] = test: Greenhouse test, post-emergence herbicidal action; format: in vivo, barnyardgrass
From the text: as §7, §2, §3, §4, §5, §6

VERSS = test: Greenhouse test, post-emergence herbicidal action; format: in vivo, speadwell
From the text: as §7, §2, §3, §4, §5, §6

ABUTH [5] = test: Greenhouse test, pre-emergence herbicidal action; format: in vivo, velvet leaf
From the text: as §1, §2, §3, §4, §5, §6

GALAP = test: Greenhouse test, post-emergence herbicidal action; format: in vivo, catchweed bedstraw; conditions: 21 days
From the text: as §7, §2, §3, §4, §5, §6

SETVI = test: Greenhouse test, post-emergence herbicidal action; format: in vivo, green foxtail
From the text: as §7, §2, §3, §4, §5, §6

crop plants = test: Safener action, pre-emergence, damage to crop plants; format: in vivo; conditions: 21 days
From the text: as §1, §2, §4
As in the example above, test plants were grown, treated with the mixture according to the invention by the Pre-emergence method and, after a test period of 21 days, evaluated using a scale from 0 to 100% damage. The test plants used were crop plants.
A safener action is present if the damage to the crop plant caused by using a mixture according to the invention which comprises a safener C) is less than the damage caused when active compound A or active compounds A and B are used without safener.

BIDPI [6] = test: Greenhouse test, pre-emergence herbicidal action; format: in vivo, hairy beggarticks
From the text: as §1, §2, §3, §4, §5, §6

[7] = application rate 1.95 g/ha, 21 days
[8] = application rate 3.91 g/ha, 21 days
[9] = application rate 62.5 g/ha (Example 23)
[10] = application rate 0.98 g/ha (Example 24)
[11] = application rate 1.95 g/ha (Example 24)
[12] = application rate 1.95 g/ha (Example 28)
[13] = application rate 3.91 g/ha (Example 28)

CCc1nc2c(Cl)cc(F)c(-c3nn(C)c(OC(F)F)c3Cl)c2o1 [I.9]
Herbicidal action against ECHCG, Found (ECHCG [1]; application rate 7.81 g/ha): 10%
Herbicidal action against ECHCG, Found (ECHCG [1]; application rate 15.63 g/ha): 35%
Herbicidal action against SETFA, Found (SETFA; application rate 1.95 g/ha): 45%
Herbicidal action against BRAPL, Found (BRAPL; application rate 3.91 g/ha (Example 17)): 65%
Herbicidal action against BRAPL, Found (BRAPL; application rate 7.81 g/ha (Example 17)): 85%
Herbicidal action against MATIN, Found (MATIN; application rate 1.95 g/ha): 20%
Herbicidal action against MATIN, Found (MATIN; application rate 3.91 g/ha): 20%
Herbicidal action against ABUTH, Found (ABUTH [2]; application rate 0.49 g/ha): 0%
Herbicidal action against ABUTH, Found (ABUTH [2]; application rate 0.98 g/ha): 70%
Herbicidal action against POLPE, Found (POLPE; application rate 0.49 g/ha, 21 days): 5%
Herbicidal action against POLPE, Found (POLPE; application rate 0.98 g/ha, 21 days): 10%
Herbicidal action against POLPE, Found (POLPE; [7]): 50%
Herbicidal action against BIDPI, Found (BIDPI [3]; [7]): 0%
Herbicidal action against BIDPI, Found (BIDPI [3]; [8]): 40%
Herbicidal action against POAAN, Found (POAAN; application rate 1.95 g/ha): 10%
Herbicidal action against POAAN, Found (POAAN; application rate 3.91 g/ha): 10%
Herbicidal action against CHEAL, Found (CHEAL; application rate 7.81 g/ha): 75%
Herbicidal action against CHEAL, Found (CHEAL; application rate 15.63 g/ha): 75%
Herbicidal action against COMBE, Found (COMBE; application rate 0.98 g/ha): 10%
Herbicidal action against COMBE, Found (COMBE; application rate 1.95 g/ha): 10%
Herbicidal action against AVEFA, Found (AVEFA; application rate 1.95 g/ha (Example 15)): 10%
Herbicidal action against AVEFA, Found (AVEFA; [7]): 10%
Herbicidal action against AVEFA, Found (AVEFA; application rate 3.91 g/ha (Example 15)): 20%
Herbicidal action against THLAR, Found (THLAR; application rate 15.63 g/ha): 80%
Herbicidal action against THLAR, Found (THLAR; application rate 31.25 g/ha): 80%

CCc1nc2c(Cl)cc(Cl)c(-c3nn(C)c(OC(F)F)c3Br)c2o1 [I.12]
Herbicidal action against SORHA, Found (SORHA; application rate 31.25 g/ha): 30%
Herbicidal action against SORHA, Found (SORHA; application rate 62.5 g/ha): 40%
Herbicidal action against ECHCG, Found (ECHCG [1]; application rate 31.25 g/ha): 0%
Herbicidal action against ECHCG, Found (ECHCG [1]; [9]): 0%
Herbicidal action against SETFA, Found (SETFA; application rate 1.95 g/ha): 50%
Herbicidal action against SETFA, Found (SETFA; application rate 3.91 g/ha): 65%
Herbicidal action against ECHCG, Found (ECHCG [4]; application rate 0.49 g/ha): 0%
Herbicidal action against ECHCG, Found (ECHCG [4]; application rate 0.98 g/ha): 0%
Herbicidal action against ECHCG, Found (ECHCG [4]; [10]): 0%
Herbicidal action against ECHCG, Found (ECHCG [4]; [11]): 0%
Herbicidal action against ECHCG, Found (ECHCG [4]; [7]): 50%
Herbicidal action against ECHCG, Found (ECHCG [4]; [8]): 50%
Herbicidal action against VERSS, Found (VERSS; application rate 0.49 g/ha): 0%
Herbicidal action against VERSS, Found (VERSS; application rate 0.98 g/ha): 50%
Herbicidal action against ABUTH, Found (ABUTH [5]; application rate 62.5 g/ha): 60%
Herbicidal action against ABUTH, Found (ABUTH [5]; application rate 125 g/ha): 60%
Herbicidal action against BRAPL, Found (BRAPL; [12]): 50%
Herbicidal action against BRAPL, Found (BRAPL; application rate 3.91 g/ha (Example 18)): 60%
Herbicidal action against BRAPL, Found (BRAPL; [13]): 50%
Herbicidal action against BRAPL, Found (BRAPL; application rate 7.81 g/ha (Example 18)): 75%
Herbicidal action against POLPE, Found (POLPE; application rate 0.49 g/ha): 15%
Herbicidal action against POLPE, Found (POLPE; application rate 0.98 g/ha): 15%
Herbicidal action against POLPE, Found (POLPE; [10]): 15%
Herbicidal action against POLPE, Found (POLPE; [11]): 60%
Herbicidal action against POLPE, Found (POLPE; [7]): 60%
Herbicidal action against POLPE, Found (POLPE; [8]): 65%
Herbicidal action against GALAP, Found (GALAP; application rate 0.49 g/ha): 15%
Herbicidal action against GALAP, Found (GALAP; application rate 0.98 g/ha): 15%
Herbicidal action against SETVI, Found (SETVI; application rate 0.98 g/ha): 40%
Herbicidal action against SETVI, Found (SETVI; application rate 1.95 g/ha): 50%
Damage to the crop plant corn (ZEAMX), cultivar Magister (crop plants; application rate 62.5 g/ha): 38%
Damage to the crop plant corn (ZEAMX), cultivar P3751 (crop plants; application rate 62.5 g/ha): 28%
Damage to the crop plant corn (ZEAMX), cultivar Magister (crop plants; application rate 125 g/ha): 35%
Damage to the crop plant corn (ZEAMX), cultivar P3751 (crop plants; application rate 125 g/ha): 35%
Herbicidal action against BIDPI, Found (BIDPI [3]; application rate 1.95 g/ha): 65%
Herbicidal action against BIDPI, Found (BIDPI [3]; application rate 3.91 g/ha): 65%
Herbicidal action against AVEFA, Found (AVEFA; application rate 1.95 g/ha): 40%
Herbicidal action against AVEFA, Found (AVEFA; application rate 1.95 g/ha (Example 16)): 20%
Herbicidal action against AVEFA, Found (AVEFA; [12]): 20%
Herbicidal action against AVEFA, Found (AVEFA; [7]): 20%
Herbicidal action against AVEFA, Found (AVEFA; application rate 3.91 g/ha): 40%
Herbicidal action against AVEFA, Found (AVEFA; application rate 3.91 g/ha (Example 16)): 30%
Herbicidal action against AVEFA, Found (AVEFA; [13]): 20%
Herbicidal action against AVEFA, Found (AVEFA; [8]): 30%
Herbicidal action against BIDPI, Found (BIDPI [6]; application rate 62.5 g/ha): 30%
Herbicidal action against BIDPI, Found (BIDPI [6]; application rate 125 g/ha): 30%

COC[C@H](C)N(C(=O)CCl)c1c(C)csc1C [dimethenamide-P]
Herbicidal action against SORHA, Found (SORHA; application rate 62.5 g/ha): 50%
Herbicidal action against ECHCG, Found (ECHCG [1]; application rate 62.5 g/ha (Example 22)): 85%
Herbicidal action against ECHCG, Found (ECHCG [1]; [9]): 85%
Herbicidal action against CHEAL, Found (CHEAL; application rate 62.5 g/ha): 10%
